1 compound from patent publication US12624004B2 (Fudan University, priority 2019, dated 2026) can be followed below.

One experiment deals with T1, μ opioid receptor (Homo sapiens, UniProt P35372).
T1 construct: expressed in transfected cells; host or cells: CHO cells (membranes)
In words: Competition binding assay on membranes of CHO cells expressing μ opioid receptor, [3H]-labeled ligand. The essentials:
(§1)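 CHO membranes (20–30 μg protein) incubated with [3H]-labeled ligand at 1–2 nM and test compounds, 30 min at 30° C; nonspecific binding with 1 μM corresponding ligand. Filtered on GF/C, washed with 50 mM Tris-HCl pH 7.4, scintillation-counted. IC50 converted to Ki by Ki=IC50/(1+[L]/Kd).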

In a further experiment the target is T2, κ opioid receptor (Homo sapiens, UniProt P41145).
T2 construct: expressed in transfected cells; host or cells: CHO cells (membranes)
Put plainly: Competition binding assay on membranes of CHO cells expressing κ opioid receptor, [3H]-labeled ligand. The essentials: as §1

[1] abbreviates: Table 3-1, 1 μM concentration of compounds.
Setting [2] is: Table 4-1, 1 μM concentration of compound.

Where two headings read alike, the source gives them in different places.

In the case of `COc1cccc(C2(O)CCCCC2CN(C)C)c1` (stereo not shown) [Tramadol, reference compound], the inhibition at 1 µM at μ opioid receptor (0.5 h, Table 5-1, 1 μM concentration of compound, read-out: μOR Combination rate (%)) came to 6 ± 0.4%; at μ opioid receptor (Table 2-1, 1 μM concentration of compound, read-out: μOR Binding rate (%)), 6 ± 0.4%; on κ opioid receptor (0.5 h, Table 2-1, 1 μM concentration of compound, read-out: κOR Binding rate (%)) it was 0%; on κ opioid receptor (0.5 h, Table 5-1, 1 μM concentration of compound, read-out: κOR Combination rate (%)), 0%. For the same compound, the inhibition at 10 µM turned out to be 6 ± 0.4% on μ opioid receptor (Table 1-1, 10 μM concentration of compound, mean ± SD of three measurements, read-out: μOR Binding rate (%)) and 0% at κ opioid receptor (0.5 h, Table 1-1, 10 μM concentration of compound, read-out: κOR Binding rate (%)). The “μOR Binding rate (%)” value at μ opioid receptor (setting [1]) amounted to 6.0%; on μ opioid receptor (setting [2]), 6.0 ± 0.4%. Further, the “κOR Binding rate (%)” value on κ opioid receptor (setting [1]) and at κ opioid receptor (setting [2]) was 0% each time.
